What was measured:
GABAA receptor = assay: CNP-recorded membrane potential of HT-22 cells during pharmacological stimulation (GABA, bicuculline); format: cell-based, mouse; conditions: for hyperpolarization from the RMP: 12 mM GABA in bath; for time for cell to return to its RMP: constant HBSS perfusion
Method: Recording Cellular Responses to Pharmacological Stimuli. In addition to monitoring predictable cell membrane potential changes caused by ionic enrichment, CNPs were utilized to electrically record cell responses to pharmacological stimuli. Y-aminobutyric acid (GABA), a principal inhibitory neurotransmitter in the mammalian central nervous system which acts as an agonist for the membrane-bound GABAA receptor, was administered. When GABA binds to the GABAA receptor, the cell hyperpolarizes as a result of Cl− ion influx due to the opening of the ligand-gated Cl− ion channel. However, the hyperpolarization can be blocked by perfusing cells with bicuculline (BIC), a competitive antagonist for the GABAA receptor which binds to the GABAA receptor and prevents it from opening even in the presence of GABA.
FIG. 10A illustrates how an HT-22 cell responded when GABA was added to the cell bath (12 mM GABA in bath, arrow).
Cell Culture and Preparation. […] Cells were grown in Dulbecco's Modified Eagle Medium (DMEM, high glucose) supplemented with 10% fetal bovine serum (FBS) and 1% antibiotics. The cells were plated on 12 mm cover slips 48 hrs prior to the electrophysiology measurements. The cells on the cover slips were incubated in HBSS (with calcium and magnesium) at room temperature for 10 min prior to measurements. The cover slips were subsequently placed in an open diamond perfision bath (Warner Instruments Corp., RC-22C) positioned on an upright microscope (Nikon eclipse E600FN, 40× water-immersion lens, Burleigh Gibraltar fixed-stage platform) located atop a vibration-isolation table. Cells were routinely perfised with HBSS at a flow rate of 1.0 mllmin.
Electrophysiology. Membrane potential measurements were recorded with an Axon AxoClamp-2A amplifier equipped with a headstage for high resistance electrodes (Axon HS2-XO.OlMU) and Digidata 1322A digitizer (Axon Instruments/Molecular Devices, Sunnyvale, Calif.). Experimental protocols were controlled and data acquired by a personal computer using the Clampex 8.2 software (Axon Instruments). CNPs were inserted into a standard electrode holder until the metal wire of the holder came in contact with the inner carbon film of the CNP. A slight positive pressure was applied through the holder's perfixion port to keep external solution from filling the hollow CNP by capillarity. A micromanipulator (Narishige MHW-3) was used to manipulate and position the CNP electrodes during the electrophysiology measurements. […] Recorded electrical measurements were not adjusted to compensate for differences in extracellular and intracellular junction potentials.

HT-22 cells = assay: CNP-recorded membrane potential of HT-22 cells during ionic (K+) enrichment; format: cell-based, mouse; conditions: for depolarization: KCl added to bath
From the text: Because the cell membrane is highly permeable to potassium ions (K^+), an increase or decrease in extracellular K+ concentration will, respectively, cause a resting cell to depolarize (membrane potential becoming more positive) or hyperpolarize (membrane potential becoming more negative). Utilizing CNPs, variations in membrane potential were monitored over tens of minutes. FIG. 8A is a recording of membrane potential from an HT-22 cell during perfusion intervals with normal HBSS and K+-enriched HBSS (additional 5 mM K^+). […] After approximately 2 min at higher extracellular K^+, the cell was perfused with normal HBSS and the cell slowly returned to its RMP.
Next, a CNP was used to measure changes in membrane potential during repetitive extracellular administration of KCl [FIG. 8B]. After penetrating the cell, as indicated by the arrow in FIG. 8B, the CNP measured a stable RMP under normal HBSS perfusion (Emp=−68 mV). […] Under constant perfusion in normal HBSS, the membrane potential returned to its original value after […]. The results were reproducible with high fidelity.
FIG. 8C is a representation of potential variations as a function of time during the administration of HBSS and the varied K+-enrichment of HBSS (additional 5 and 15 mM K^+). […] As normal HBSS perfusion brought the bath back to its initial K+ concentration, the cell returned to its RMP in ˜90 seconds.
Lastly, CNPs were used to electrically record a cell response to sequential pharmacological stimulation and ionic enrichment. FIG. 10B represents the opposing membrane responses to such stimuli over time. […] Once the GABA was washed away under constant HBSS perfision, the cell returned to its RMP in 60 sec. […] As excess KCl was washed away under constant HBSS perfusion, the cell returned again to its RMP after 60 sec.
Cell Culture and Preparation. The mouse hippocampal cell line HT-22 was kindly provided by Dr. David Schubert (The Salk Institute, San Diego, Calif.). Cells were grown in Dulbecco's Modified Eagle Medium (DMEM, high glucose) supplemented with 10% fetal bovine serum (FBS) and 1% antibiotics. The cells were plated on 12 mm cover slips 48 hrs prior to the electrophysiology measurements. The cells on the cover slips were incubated in HBSS (with calcium and magnesium) at room temperature for 10 min prior to measurements. The cover slips were subsequently placed in an open diamond perfision bath (Warner Instruments Corp., RC-22C) positioned on an upright microscope (Nikon eclipse E600FN, 40× water-immersion lens, Burleigh Gibraltar fixed-stage platform) located atop a vibration-isolation table. Cells were routinely perfised with HBSS at a flow rate of 1.0 mllmin.
Electrophysiology. Membrane potential measurements were recorded with an Axon AxoClamp-2A amplifier equipped with a headstage for high resistance electrodes (Axon HS2-XO.OlMU) and Digidata 1322A digitizer (Axon Instruments/Molecular Devices, Sunnyvale, Calif.). Experimental protocols were controlled and data acquired by a personal computer using the Clampex 8.2 software (Axon Instruments). CNPs were inserted into a standard electrode holder until the metal wire of the holder came in contact with the inner carbon film of the CNP. A slight positive pressure was applied through the holder's perfixion port to keep external solution from filling the hollow CNP by capillarity. A micromanipulator (Narishige MHW-3) was used to manipulate and position the CNP electrodes during the electrophysiology measurements. All the electrical measurements were carried out versus an AgIAgCl reference electrode submerged in HBSS in discontinuous current clamp @CC) mode, at zero current, with no capacitance compensation. The CNP potential was nulled (+I-2 mV) with the amplifier offset potential during immersion in HBSS before all electrical measurements. Recorded electrical measurements were not adjusted to compensate for differences in extracellular and intracellular junction potentials.

SMILES | hyperpolarization from the RMP (GABAA receptor; RMP -57 mV, FIG. 10B) [mV] | hyperpolarization from the RMP (GABAA receptor; normal HBSS perfusion, RMP -53 mV, FIG. 10A) [mV] | time for cell to return to its RMP (GABAA receptor; after 12 mM GABA washed away, FIG. 10B) [s] | time for cell to return to its RMP (GABAA receptor; after 12 mM GABA, FIG. 10A) [s] | depolarization (HT-22 cells; additional 5 mM K+, RMP -57 mV, FIG. 8C) [mV] | depolarization (HT-22 cells; additional 15 mM K+, RMP -57 mV, FIG. 8C) [mV] | depolarization (HT-22 cells; additional 15 mM K+, after GABA washout, RMP -57 mV, FIG. 10B) [mV] | depolarization (HT-22 cells; additional 25 mM K+, RMP -68 mV, FIG. 8B) [mV] | time for cell to return to its RMP (HT-22 cells; after additional 5 mM K+, normal HBSS perfusion, FIG. 8C) [s] | time for cell to return to its RMP (HT-22 cells; after additional 15 mM K+, FIG. 8C) [s] | time for cell to return to its RMP (HT-22 cells; after additional 15 mM K+, constant HBSS perfusion, FIG. 10B) [s]
NCCCC(=O)O [GABA, Y-aminobutyric acid] | 12 | 10 | 60 | 30 | – | – | – | – | – | – | –
[Cl-].[K+] [KCl, Potassium chloride] | – | – | – | – | 10 | 30 | 25 | 40 | ~90 | ~90 | 60
